Test [1] concerns generalized trembling caused by dl-5-hydroxytryptophane. Nature of the test: Test A: potentiation in mice of generalized trembling caused by dl-5-hydroxytryptophane. The format is in vivo. The following applies: Mus musculus, po, mice, potentiation of trembling by dl-5-hydroxytryptophane 200 mg/kg interperitoneal, read-out: Test A ED 50. As to the method:
Test A: Potentiation in mice of generalized trembling caused by an interperitoneal injection (200 mg/kg) of dl-5-hydroxytryptophane, following the protocol described by C. GOURET and G. RAYNAUD in J. Pharmacol. (Paris), (1974), 5, 231.

For test [2], the system named is ptosis observed one hour after reserpine. Nature of the test: Test B: antagonism of reserpine-induced ptosis in mice. The format is in vivo. The following applies: Mus musculus, 1 h, po, antagonism of ptosis one hour after reserpine 2 mg/kg intravenous, read-out: Test B ED 50. As to the method:
Test B: Antagonism with respect to the ptosis observed one hour after an intravenous injection (2 mg/kg) of reserpine given to mice, following the protocol described by C.

With `CCCCOc1ccc(N2CC(CO)OC2=S)cc1` (centres unmarked) [compound 89], the ED50 in test [1] and in test [2] was 12.5 mg/kg throughout.

Turning to `O=C(OCC1CN(c2ccc(OCc3ccccc3)cc2)C(=O)O1)c1ccccc1` (centres unmarked) [compound 29], the ED50 is 45 mg/kg in test [1] and 50 mg/kg in test [2].

Turning to `CC(C)(C)C(=O)OCC1CN(c2ccc(OCc3cccc([N+](=O)[O-])c3)cc2)C(=O)O1` (centres unmarked) [compound 40], the figures for the ED50 in test [1] and in test [2] were 6.2 mg/kg and 1.5 mg/kg, respectively.

On to `COCC1CN(c2ccc(OCc3ccc(Cl)cc3)cc2)C(=O)O1` (centres unmarked) [compound 68], for which the ED50 came out at 5 mg/kg in test [1] and 6.2 mg/kg in test [2].

In the case of `COCC1CN(c2ccc(OCc3cc(Cl)cc([N+](=O)[O-])c3)cc2)C(=O)O1` (centres unmarked) [compound 156], the ED50 was determined as 0.47 mg/kg in test [1] and 0.3 mg/kg in test [2].

Consider `NCC1CN(c2ccc(OCc3cccc(Cl)c3)cc2)C(=O)O1` (centres unmarked) [compound 82], for which the ED50 in test [1] came to 9.6 mg/kg; in test [2], 12 mg/kg.

`CCOc1ccc(N2CC(CO)OC2=S)cc1` (centres unmarked) [compound 87, para ethoxyphenyl-3 hydroxymethyl-5 oxazolidine thione-2]: the ED50 in test [1] worked out at 29 mg/kg; in test [2] it was 44 mg/kg.

On to `NCC1CN(c2ccc(OCc3ccc(F)cc3)cc2)C(=O)O1` (centres unmarked) [compound 176], for which the ED50 in test [1] and in test [2] was 4 mg/kg each time.

As to `CCCCC(=O)OCC1CN(c2ccc(OCCC(C)C)cc2)C(=O)O1` (centres unmarked) [compound 128], the ED50 in test [1] was determined as 7.2 mg/kg; in test [2], 4.8 mg/kg.

Regarding `COCC1CN(c2ccc(OCc3cccc(C#N)c3)cc2)C(=S)O1` (centres unmarked) [compound 116], the ED50 came to 1.6 mg/kg in test [1] and 0.95 mg/kg in test [2].

For `CC(C)(C)C(=O)OCC1CN(c2ccc(OCc3ccccc3)cc2)C(=O)O1` (centres unmarked) [compound 27], the ED50 in test [1] was 25 mg/kg; in test [2], 44 mg/kg.

As to `COCC1CN(c2ccc(OCc3cccc(F)c3)cc2)C(=O)O1` (centres unmarked) [compound 67], the ED50 in test [1] was found to be 4.4 mg/kg; in test [2] it was 5.6 mg/kg.

Consider `CCC(=O)OCC1CN(c2ccc(OCC3CCCC3)cc2)C(=O)O1` (centres unmarked) [compound 14], for which the values for the ED50 in test [1] and in test [2] were 2 mg/kg and 3.1 mg/kg, respectively.

Consider `CCC(=O)OCC1CN(c2ccc(OCCC#N)cc2)C(=O)O1` (centres unmarked) [compound 4], for which the ED50 in test [1] was determined as 2.3 mg/kg; in test [2] it was 3.4 mg/kg.

`COCC1CN(c2ccc(OCCCCC#N)cc2)C(=S)O1` (centres unmarked) [compound 217]: the ED50 in test [1] and in test [2] was 1 mg/kg throughout.

Consider `CCCOc1ccc(N2CC(CO)OC2=S)cc1` (centres unmarked) [compound 88], for which the values for the ED50 in test [1] and in test [2] were 12.5 mg/kg and 33 mg/kg, respectively.

On to `CC(C)C(=O)OCC1CN(c2ccc(OCC3CCCC3)cc2)C(=O)O1` (centres unmarked) [compound 15], for which the ED50 came out at 2.2 mg/kg in test [1] and 2 mg/kg in test [2].

Take `CC(C)OCC1CN(c2ccc(OCc3cccc([N+](=O)[O-])c3)cc2)C(=O)O1` (centres unmarked) [compound 62]: the ED50 in test [1] was found to be 3.6 mg/kg; in test [2], 2.4 mg/kg.

On to `CC(C)OCC1CN(c2ccc(OCC3CCCC3)cc2)C(=O)O1` (centres unmarked) [compound 50], for which the values for the ED50 in test [1] and in test [2] were 17.5 mg/kg and 15 mg/kg, respectively.

On to `CC(C)CCOc1ccc(N2CC(COC(=O)C(C)(C)C)OC2=O)cc1` (centres unmarked) [compound 125], for which the figures for the ED50 in test [1] and in test [2] were 5 mg/kg and 3.5 mg/kg, respectively.

On to `CNCC1CN(c2ccc(OCc3ccc(F)cc3)cc2)C(=O)O1` (centres unmarked) [compound 175], for which the ED50 in test [1] stood at 5.8 mg/kg; in test [2], 9.6 mg/kg.

For the compound `CC(C)(C)C(=O)OCC1CN(c2ccc(OCC3CCCC3)cc2)C(=O)O1` (centres unmarked) [compound 17], the figures for the ED50 in test [1] and in test [2] were 4.8 mg/kg and 3.6 mg/kg, respectively.

On to `CC(=O)OCC1CN(c2ccc(OCC3CCCCC3)cc2)C(=S)O1` (centres unmarked) [compound 115], for which the results for the ED50 in test [1] and in test [2] were 3.8 mg/kg and 4.8 mg/kg, respectively.

Regarding `CCCCCCCCC(=O)OCC1CN(c2ccc(OCc3cccc([N+](=O)[O-])c3)cc2)C(=O)O1` (centres unmarked) [compound 42], the ED50 in test [1] was found to be 1.25 mg/kg; in test [2] it was 2 mg/kg.

`COCC1CN(c2ccc(OCc3ccc(C#N)cc3)cc2)C(=O)O1` (centres unmarked) [compound 159]: the ED50 was determined as 5.2 mg/kg in test [1] and 4.8 mg/kg in test [2].

The record behind these values is patent US4348393A, “N-Aryl oxazolidinones, oxazolidinethiones, pyrrolidinones, pyrrolidines and thiazolidinones” (Delalande S.A., priority 1978, dated 1982).
